Counter-ions that a name gives are not always drawn.
Key:
[1] = system: mice with T9 contusion type of injury; experiment: acetone evaporation assay (cold allodynia) after T9 contusion SCI; type: in vivo; conditions: 14 dpi and 42 dpi, vs Vehicle
Method: (§1) A moderate-severe contusion-type of injury was performed on adult C57BL/6 female mice (10-12 weeks) with an Infinite Horizon Impactor (PSI)^30. All surgeries were performed under aseptic conditions. Briefly, under deep anesthesia with Ketamine and Xylazine (120 mg/kg and 16 mg/kg respectively, i.p.) mice received a dorsal laminectomy at the level of 9th thoracic vertebra (T9). After securing the lateral processes of the 8th thoracic vertebra (T8) and 10th thoracic vertebra (T10) with a stainless-steel impactor tip, a controlled force-defined impact at 75 kdyne was delivered to the exposed spinal cord^28,30. Then, muscle and skin were closed with 4.0 polyglycolic acid (PGA) absorbable sutures (Safil, G1048213). In this study, mice were excluded when the actual displacement value was outside the interval 500-700 μm or if the actual force after impact was >2SD 75 Kdyne. […] Weight was monitored daily until 15 days-post-injury (dpi) and then weekly for the duration of the study and a high caloric pellet (Supreme Mini-Treats™ S05478 and S05472) was provided as a dietary supplement since a 10% weight loss was typically observed in this SCI model upon injury. […]
An acetone evaporation assay was used to measure the sensitivity to a cold stimulus upon injury^33. […] In each trial, the time spent flicking or licking the hind paw for 60 seconds was measured using a timer and recorded for analysis^34. […]

[2] = system: mice with T9 contusion type of injury; experiment: FluoroMyelin Green staining and white matter sparing analysis; type: in vivo; conditions: 42 dpi; at lesion epicentre and over 700 μm rostrally and caudally, vs Vehicle
Method: as §1, with “G1048213).” for “G1048213). In this study, mice were excluded when the actual displacement value was outside the interval 500-700 μm or if the actual force after impact was >2SD 75 Kdyne.”
To quantify demyelination, one set of sections spaced 100 μm apart and spanning the entire block was stained with FluoroMyelin™ Green (ThermoFisher Scientific, F34651) for 1 hour. Z-stack compositions were acquired in a motorized inverted widefield fluorescence microscope (Zeiss Cell Observer, Carl Zeiss MicroImaging) with 10× magnification. […]

[3] = system: mice with T9 contusion type of injury; experiment: PDGFRβ / CD31 (PECAM-1) double immunohistochemistry, vasculature association; type: in vivo; conditions: sections 1000 μm from epicentre, 42 dpi, vs Vehicle
Method: as §1, with “cord^28,30.” for “cord^28,30. Then, muscle and skin were closed with 4.0 polyglycolic acid (PGA) absorbable sutures (Safil, G1048213). In this study, mice were excluded when the actual displacement value was outside the interval 500-700 μm or if the actual force after impact was >2SD 75 Kdyne.”
For immunohistochemistry in sections, OCT was removed from the cryosections using PBS (30 minutes). […] For activated microglia quantification, sections were counterstained with DAPI. […]
To infer if increased levels of PDGFRβ^+ detected on the extremities of the lesion extents were associated with blood vessels we decided to performed a double immunohistochemistry using a pericyte marker PDGFRβ and an endothelial cell marker CD31 (PECAM-1) (FIG. 7). […]

[4] = molecular target: 5-HT1B (Homo sapiens, UniProt P28222); conditions: serotonin receptor agonist; cited from earlier work
[5] = molecular target: T1, 5-HTIF (Homo sapiens, UniProt P30939); conditions: serotonin receptor agonist; cited from earlier work
T1 sequence (P30939 1-366): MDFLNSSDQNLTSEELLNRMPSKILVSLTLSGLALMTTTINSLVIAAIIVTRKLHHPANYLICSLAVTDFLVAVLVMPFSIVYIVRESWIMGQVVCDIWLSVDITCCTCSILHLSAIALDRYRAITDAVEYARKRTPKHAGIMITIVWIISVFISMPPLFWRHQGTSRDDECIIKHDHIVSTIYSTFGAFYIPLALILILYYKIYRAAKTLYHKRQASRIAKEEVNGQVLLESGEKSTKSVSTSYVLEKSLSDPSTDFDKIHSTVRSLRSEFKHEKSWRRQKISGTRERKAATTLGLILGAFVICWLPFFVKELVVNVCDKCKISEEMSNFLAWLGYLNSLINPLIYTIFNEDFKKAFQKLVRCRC

Chain of 5-HT1B (P28222 whole entry, species assumed): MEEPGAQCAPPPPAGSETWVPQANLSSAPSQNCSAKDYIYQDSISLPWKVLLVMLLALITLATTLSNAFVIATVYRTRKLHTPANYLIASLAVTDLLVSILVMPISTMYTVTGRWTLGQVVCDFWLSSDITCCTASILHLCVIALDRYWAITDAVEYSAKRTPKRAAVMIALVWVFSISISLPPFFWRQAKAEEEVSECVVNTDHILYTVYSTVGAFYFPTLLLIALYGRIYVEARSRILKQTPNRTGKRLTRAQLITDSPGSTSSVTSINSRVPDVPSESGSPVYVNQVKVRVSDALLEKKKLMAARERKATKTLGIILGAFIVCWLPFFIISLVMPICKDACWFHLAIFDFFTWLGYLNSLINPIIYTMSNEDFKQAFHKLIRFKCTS

## CN1CCC[C@@H]1Cc1c[nH]c2ccc(CCS(=O)(=O)c3ccccc3)cc12 [Eletriptan Hbr, Eletriptan Hydrobromide]
[1]
  cumulative reaction time of nocifensive responses: consistently but not a significantly decrease
  number of episodes of the cold hypersensitivity: lower number of episodes
[2]
  spared white matter per total cross-sectional area: not significantly but consistently higher
[3]
  increased expression of PDGFRβ associated with CD31+ endothelial cells: reduced
[4]
  affinity: high affinity
[5]
  affinity: high affinity

From patent US12605362B2, “Eletriptan hydrobromide for treatment of spinal cord injury and improvement of locomotor function” (TECHNOPHAGE, INVESTIGAÇÃO E DESENVOLVIMENTO EM …, priority 2020, dated 2026)
